In patent US4206215A, “Antimicrobial bis-[4-(substituted-amino)-1-pyridinium]alkanes” (Sterling Drug Inc., priority 1977, dated 1980):

What was measured:
S. Aureus Smith = assay: In vitro antibacterial activity, MIC (modified Autotiter method); assay type: cell-based, Staphylococcus aureus; settings: 18-20 hours at 37° C.
Outline: (§1)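 MIC values come from a twofold dilution series spanning final concentrations of 500 down to 0.06 mcg./ml. Dilutions were prepared automatically in sterile water from a 1,000 mcg./ml. solution before inoculated double-strength glucose-containing semisynthetic medium was added.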

E. coli 100/B22 = assay: as above; assay type: cell-based, Escherichia coli; settings: 18-20 hours at 37° C.
Outline: as §1

E. coli AB1932-1 = assay: as above; assay type: cell-based, Escherichia coli; settings: 18-20 hours at 37° C.
Outline: as §1

E. coli Vogel = assay: as above; assay type: cell-based, Escherichia coli; settings: 18-20 hours at 37° C.
Outline: as §1

K. pneum. 39645 = assay: as above; assay type: cell-based, Klebsiella pneumoniae; settings: 18-20 hours at 37° C.
Outline: as §1

P. mirab. MGH-1 = assay: as above; assay type: cell-based, Proteus mirabilis; settings: 18-20 hours at 37° C.
Outline: as §1

Ps. aerug. MGH-2 = assay: as above; assay type: cell-based, Pseudomonas aeruginosa; settings: 18-20 hours at 37° C.
Outline: as §1

S. pyogen. C203 = assay: as above; assay type: cell-based, Streptococcus pyogenes; settings: 18-20 hours at 37° C.
Outline: as §1

A. niger 16404 = assay: In vitro antifungal activity, MIC (modified Autotiter method); assay type: cell-based, Aspergillus niger; settings: 18-20 hours at 37° C.
Outline: as §1

C. albicans 10231 = assay: as above; assay type: cell-based, Candida albicans; settings: 18-20 hours at 37° C.
Outline: as §1

C. albicans Wisc. = assay: as above; assay type: cell-based, Candida albicans; settings: 18-20 hours at 37° C.
Outline: as §1

T. menta. 9129 = assay: as above; assay type: cell-based, Trichophyton mentagrophytes; settings: 18-20 hours at 37° C.
Outline: as §1

[1] = Acute oral toxicity (ALD50); assay type: in vivo; settings: mouse, in vivo, po, mice, aqueous solution; read-out: 7-Day ALD50
Experimental: (§2) The acute oral toxicity (ALD50) of several representative examples was determined as follows: Groups of 3 young adult male Swiss-Webster strain albino mice were fasted approximately 4 hours before medication and then medicated once orally by stomach tube.

[2] = tested on: young adult male Swiss-Webster strain albino mice; assay: Acute oral toxicity (ALD50); assay type: in vivo; settings: for Mortality 7 Days / Mortality 24 Hrs: aqueous solution
Experimental: as §2

Compound | MIC S. Aureus Smith (S. Aureus Smith) [µg/mL] | MIC E. coli 100/B22 (E. coli 100/B22) [µg/mL] | MIC E. coli AB1932-1 (E. coli AB1932-1) [µg/mL] | MIC E. coli Vogel (E. coli Vogel) [µg/mL] | MIC K. pneum. 39645 (K. pneum. 39645) [µg/mL] | MIC P. mirab. MGH-1 (P. mirab. MGH-1) [µg/mL] | MIC Ps. aerug. MGH-2 (Ps. aerug. MGH-2) [µg/mL] | MIC S. pyogen. C203 (S. pyogen. C203) [µg/mL] | MIC A. niger 16404 (A. niger 16404) [µg/mL] | MIC C. albicans 10231 (C. albicans 10231) [µg/mL] | MIC C. albicans Wisc. (C. albicans Wisc.) [µg/mL] | MIC T. menta. 9129 (T. menta. 9129) [µg/mL] | LD50 at 168 h [1] [mg/kg] | Mortality 7 Days ([2]; 125 mg/kg oral) | Mortality 7 Days ([2]; 250 mg/kg oral) | Mortality 24 Hrs ([2]; 250 mg/kg oral) | Mortality 7 Days ([2]; 500 mg/kg oral) | Mortality 24 Hrs ([2]; 500 mg/kg oral) | Mortality 7 Days ([2]; 1000 mg/kg oral) | Mortality 24 Hrs ([2]; 1000 mg/kg oral) | also measured
CCCCCCCCNc1cc[n+](CCCCCCCC[n+]2ccc(NCCCCCCCC)cc2)cc1 [Example 12, 1,8-Bis-[4-(octylamino)-1-pyridinium]octane dichloride] | 0.25 | 0.5 | 1.0 | 1.0 | 1.0 | 3.9 | 7.8 | 0.5 | 7.8 | 1.0 | 1.0 | 1.0 | 750 | 0/3 | 0/3 | 0/3 | 1/3 | 1/3 | 2/3 | 2/3 | Mortality 24 Hrs ([2]; 125 mg/kg oral): 0/3
CCCCCCCNc1cc[n+](CCCCCCCC[n+]2ccc(NCCCCCCC)cc2)cc1 [Example 23] | 0.5 | 1.95 | 1.0 | 1.95 | 1.95 | 62.6 | 31.3 | 1.0 | 7.8 | 1.0 | 1.95 | 1.95 | 625 | 0/3 | 0/3 | 0/3 | 1/3 | 1/3 | 3/3 | 3/3 | Mortality 24 Hrs ([2]; 125 mg/kg oral): 0/3
CCCCCCCNc1cc[n+](CCCCCCCCC[n+]2ccc(NCCCCCCC)cc2)cc1 [Example 25, 1,9-Bis-[4-(heptylamino)-1-pyridinium]nonane dichloride] | 0.25 | 1.0 | 1.0 | 1.0 | 1.95 | 31.3 | 31.3 | 0.5 | 1.95 | 1.0 | 1.0 | 1.0 | 500 |  | 1/3 | 1/3 | 1/3 | 1/3 | 3/3 | 3/3 | Autopsy, gross tissue changes ([2]; oral, 7 days, Example 25: 1000 mg./kg.): congestion of the glandular portion of the stomachs of two of the three mice was observed
CCCCCCCNc1cc[n+](CCCCCCCCCC[n+]2ccc(NCCCCCCC)cc2)cc1 [Example 27] | 0.25 | 0.5 | 1.0 | 0.5 | 1.0 | 7.8 | 7.8 | 0.5 | 3.9 | 1.96 | 1.0 | 1.0 | 250 | 1/3 | 0/3 | 0/3 | 1/3 | 1/3 | 3/3 | 1/3 | Mortality 24 Hrs ([2]; 125 mg/kg oral): 0/3
